According to PubChem BioAssay (NCI):
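Each compound was tested at five concentrations against cells in 96-well plates for 48 hours. GI50 marks 50% less growth. TGI is the concentration that stops growth completely.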

Tests used:
Assay in all cases: growth of human tumour cells (NCI), 48 h
SW-620 colon = system: SW-620 colon
M14 melanoma = system: M14 melanoma
SK-MEL-2 melanoma = system: SK-MEL-2 melanoma
COLO 205 colon = system: COLO 205 colon
K-562 leukemia = system: K-562 leukemia
786-0 renal = system: 786-0 renal
OVCAR-3 ovarian = system: OVCAR-3 ovarian
UO-31 renal = system: UO-31 renal
MOLT-4 leukemia = system: MOLT-4 leukemia
HOP-92 NSCLC = system: HOP-92 NSCLC
OVCAR-8 ovarian = system: OVCAR-8 ovarian
PC-3 prostate = system: PC-3 prostate
ACHN renal = system: ACHN renal
NCI/ADR-RES ovarian = system: NCI/ADR-RES ovarian
HCC-2998 colon = system: HCC-2998 colon
SNB-19 CNS = system: SNB-19 CNS
MALME-3M melanoma = system: MALME-3M melanoma
HS 578T breast = system: HS 578T breast
DU-145 prostate = system: DU-145 prostate
SF-268 CNS = system: SF-268 CNS
SF-539 CNS = system: SF-539 CNS
LOX IMVI melanoma = system: LOX IMVI melanoma
NCI-H460 lung = system: NCI-H460 lung
A549 NSCLC = system: A549 NSCLC
HCT-15 colon = system: HCT-15 colon
U251 CNS = system: U251 CNS
A498 renal = system: A498 renal
SF-295 CNS = system: SF-295 CNS
TK-10 renal = system: TK-10 renal
RPMI-8226 leukemia = system: RPMI-8226 leukemia
OVCAR-5 ovarian = system: OVCAR-5 ovarian
MDA-MB-435 = system: MDA-MB-435
MDA-MB-231 breast = system: MDA-MB-231 breast
EKVX NSCLC = system: EKVX NSCLC
SK-OV-3 ovarian = system: SK-OV-3 ovarian
NCI-H23 lung = system: NCI-H23 lung
SK-MEL-28 melanoma = system: SK-MEL-28 melanoma
SN12C renal = system: SN12C renal
T-47D breast = system: T-47D breast
UACC-62 melanoma = system: UACC-62 melanoma
HOP-62 NSCLC = system: HOP-62 NSCLC
UACC-257 melanoma = system: UACC-257 melanoma
BT-549 breast = system: BT-549 breast
MCF7 breast = system: MCF7 breast
IGROV1 ovarian = system: IGROV1 ovarian
SK-MEL-5 melanoma = system: SK-MEL-5 melanoma
SNB-75 CNS = system: SNB-75 CNS
KM12 colon = system: KM12 colon
NCI-H226 lung = system: NCI-H226 lung
CAKI-1 renal = system: CAKI-1 renal
HT29 colon = system: HT29 colon
RXF 393 renal = system: RXF 393 renal
OVCAR-4 ovarian = system: OVCAR-4 ovarian
HCT-116 colon = system: HCT-116 colon
CCRF-CEM leukemia = system: CCRF-CEM leukemia
NCI-H522 lung = system: NCI-H522 lung

Nc1ccc(-c2nc3ccccc3[nH]2)c2ccccc12
GI50 (SW-620 colon): 1.4 µM | TGI (SW-620 colon): > 100 µM | GI50 (M14 melanoma): 2.73 µM | TGI (M14 melanoma): 17.6 µM | GI50 (SK-MEL-2 melanoma): 14.2 µM | TGI (SK-MEL-2 melanoma): > 100 µM | GI50 (COLO 205 colon): 3.41 µM | TGI (COLO 205 colon): 24.6 µM | GI50 (K-562 leukemia): 2.54 µM | TGI (K-562 leukemia): > 100 µM | GI50 (786-0 renal): 4.02 µM | TGI (786-0 renal): > 41.4 µM | GI50 (OVCAR-3 ovarian): 2.5 µM | TGI (OVCAR-3 ovarian): > 41.4 µM | GI50 (UO-31 renal): 5.32 µM | TGI (UO-31 renal): > 82.8 µM | GI50 (MOLT-4 leukemia): 3.44 µM | TGI (MOLT-4 leukemia): > 100 µM | GI50 (HOP-92 NSCLC): 1.57 µM | TGI (HOP-92 NSCLC): 9.61 µM | GI50 (OVCAR-8 ovarian): 5.2 µM | TGI (OVCAR-8 ovarian): 65.1 µM | GI50 (PC-3 prostate): 6.49 µM | TGI (PC-3 prostate): > 100 µM | GI50 (ACHN renal): 8.41 µM | TGI (ACHN renal): 41.3 µM | GI50 (NCI/ADR-RES ovarian): 2.08 µM | TGI (NCI/ADR-RES ovarian): 7.37 µM | GI50 (HCC-2998 colon): 2.46 µM | TGI (HCC-2998 colon): 10.5 µM | GI50 (SNB-19 CNS): 3.57 µM | TGI (SNB-19 CNS): > 100 µM | GI50 (MALME-3M melanoma): 1.36 µM | TGI (MALME-3M melanoma): 21.6 µM | GI50 (HS 578T breast): 3.5 µM | TGI (HS 578T breast): > 30 µM | GI50 (DU-145 prostate): 2.81 µM | TGI (DU-145 prostate): > 22.3 µM | GI50 (SF-268 CNS): 5.93 µM | TGI (SF-268 CNS): > 100 µM | GI50 (SF-539 CNS): 3.11 µM | TGI (SF-539 CNS): 17 µM | GI50 (LOX IMVI melanoma): 4.97 µM | TGI (LOX IMVI melanoma): 48.1 µM | GI50 (NCI-H460 lung): 3.9 µM | TGI (NCI-H460 lung): > 100 µM | GI50 (A549 NSCLC): 6.6 µM | TGI (A549 NSCLC): 50.3 µM | GI50 (HCT-15 colon): 6.35 µM | TGI (HCT-15 colon): 20.8 µM | GI50 (U251 CNS): 4.12 µM | TGI (U251 CNS): 30.6 µM | GI50 (A498 renal): 1.07 µM | TGI (A498 renal): 15 µM | GI50 (SF-295 CNS): 1.56 µM | TGI (SF-295 CNS): > 28.9 µM | GI50 (TK-10 renal): 7.24 µM | TGI (TK-10 renal): > 100 µM | GI50 (RPMI-8226 leukemia): 2.64 µM | TGI (RPMI-8226 leukemia): > 37 µM | GI50 (OVCAR-5 ovarian): 6.08 µM | TGI (OVCAR-5 ovarian): > 53.5 µM | GI50 (MDA-MB-435): 0.198 µM | TGI (MDA-MB-435): 0.812 µM | GI50 (MDA-MB-231 breast): 8.16 µM | TGI (MDA-MB-231 breast): > 41.7 µM | GI50 (EKVX NSCLC): 14.5 µM | TGI (EKVX NSCLC): > 100 µM | GI50 (SK-OV-3 ovarian): 3.23 µM | TGI (SK-OV-3 ovarian): 57.5 µM | GI50 (NCI-H23 lung): 3.24 µM | TGI (NCI-H23 lung): > 30.3 µM | GI50 (SK-MEL-28 melanoma): 4.27 µM | TGI (SK-MEL-28 melanoma): > 62.1 µM | GI50 (SN12C renal): 10.1 µM | TGI (SN12C renal): 59.7 µM | GI50 (T-47D breast): 11.6 µM | TGI (T-47D breast): > 61.6 µM | GI50 (UACC-62 melanoma): 7.51 µM | TGI (UACC-62 melanoma): > 27.6 µM | GI50 (HOP-62 NSCLC): 6.16 µM | TGI (HOP-62 NSCLC): > 100 µM | GI50 (UACC-257 melanoma): 6.46 µM | TGI (UACC-257 melanoma): > 100 µM | GI50 (BT-549 breast): 2.39 µM | TGI (BT-549 breast): 22.5 µM | GI50 (MCF7 breast): 2.38 µM | TGI (MCF7 breast): > 100 µM | GI50 (IGROV1 ovarian): 3.36 µM | TGI (IGROV1 ovarian): 42.6 µM | GI50 (SK-MEL-5 melanoma): 1.65 µM | TGI (SK-MEL-5 melanoma): 8.5 µM | GI50 (SNB-75 CNS): 0.809 µM | TGI (SNB-75 CNS): 4.39 µM | GI50 (KM12 colon): 1.92 µM | TGI (KM12 colon): 16.1 µM | GI50 (NCI-H226 lung): 8.44 µM | TGI (NCI-H226 lung): 37.9 µM | GI50 (CAKI-1 renal): 2.23 µM | TGI (CAKI-1 renal): > 53.7 µM | GI50 (HT29 colon): 1.49 µM | TGI (HT29 colon): 14.6 µM | GI50 (RXF 393 renal): 1.83 µM | TGI (RXF 393 renal): 12.2 µM | GI50 (OVCAR-4 ovarian): 8.26 µM | TGI (OVCAR-4 ovarian): > 72.5 µM | GI50 (HCT-116 colon): 3.3 µM | TGI (HCT-116 colon): 12.6 µM | GI50 (CCRF-CEM leukemia): 2.03 µM | TGI (CCRF-CEM leukemia): > 43.2 µM | GI50 (NCI-H522 lung): 3.14 µM | TGI (NCI-H522 lung): 17.1 µM
